# From paper PMC8533149 (Biomolecules, 2021)
# Test system: HIV-1 LTR-III G-quadruplex (FAM/TAMRA-labeled LTR-III)
# Assay: FRET melting assay, LTR-III G4
# Format: binding
# Conditions: Table S1 primary screening, ligand:ODN 50:1, singlicate
# Protocol: To evaluate stabilizing properties of the ligands in a complex with oligodeoxyribonucleotides (ODNs) melting with fluorescence registration was used. ODN (0.5 μM) (Table 1), labeled with 6-carboxyfluorescein (FAM) and 6-carboxytetramethylrhodamine (TAMRA) at the 5′- and 3′-end, respectively, were folded in lithium cacodylate buffer (10 mM, pH 7.4) with 100 mM KCl by heating at 95 °C for 5 min and gradually cooling to r.t. GFP chromophore analogs (5 mM solution in DMSO) were diluted with the same buffer to the final concentration of 25 μM and mixed with an equal volume of 0.5 μM ODN solution resulting in a molar ratio of 50:1 (total volume was 50 μL). For the titration experiments molar ratios of 20:1 and 2:1 were used. Samples were analyzed using DTprime qPCR system (DNA-Technology LLC, Moscow, Russia). Fluorescence was registered by detection of FAM emission at 520 nm upon excitation at 495 nm in the temperature range of 30–95 °C with 1 °C/min gradient. Tm was determined using the instrument software and ΔTm was calculated relative to ODN Tm in a buffer solution containing 0.25% (v/v) DMSO. The primary and secondary screening were carried out in singlicate and triplicate, respectively.
row,Compound,LTR-III ΔTm [°C]
1,CCN(CC)c1ccc(/C=C2\N=C3C(=O)NCCN3C2=O)cc1 [JL 19],0.1
2,CC(=O)Oc1ccc(C=C2N=C(C=C(OC(=O)c3ccc(C)cc3)c3ccc(C)cc3)N(C)C2=O)cc1 [M 202],-0.6
3,CN1C(=O)C(=Cc2ccc(OC(=O)c3ccccc3)cc2)N=C1C=C(OC(=O)c1ccccc1)c1ccccc1 [M 228],-0.8
4,CCC(=O)Oc1ccc(C=C2N=C(CC)OC2=O)cc1 [M 292],-0.6
5,O=C1NC(C=Cc2cc(Br)c(O)c(Br)c2)=NC1=Cc1ccc(O)cc1 [M 295],-0.5
6,COc1ccc(C=C2N=C(C)N(OC)C2=O)cc1 [M 312],-0.2
7,CCC1=NC(=Cc2ccc(O)cc2)C(=O)N1OC [M 316],-0.3
8,COc1ccc(C=C2N=C(C(C)(C)C)N(C)C2=O)cc1 [M 440],-0.1
9,CCC1=NC(=Cc2ccc(OC)cc2)C(=O)N1C [M 497a2],-0.4
10,CON1C(=O)C(=Cc2ccc(O)cc2)N=C1CCC(C)C [M 552],0
11,CC1=NC(=Cc2ccc(O)c(F)c2)C(=O)N1C [M 556],-0.2
12,CON1C(=O)C=NC(=Cc2ccc(O)cc2)C1=O [M 577],0.1
13,C=CCN1C(=O)C(=Cc2ccc(O[Si](c3ccccc3)(c3ccccc3)C(C)(C)C)cc2)N=C1C [M 653],-0.2
14,CC(=O)Oc1ccc(C=C2N=C(C)N(CCNC(=O)OC(C)(C)C)C2=O)cc1 [M 678],-0.4
15,CCN(CC)c1ccc(C=C2N=C(C)N(C)C2=O)c(B(F)F)c1 [M 739],-0.4
16,CCC1=NC(=Cc2ccc(N(CC)CC)cc2)C(=O)N1C [M 747],0.6
17,CN1C(=O)C(=Cc2ccc(O)cc2)N=C1c1ccccc1 [M 750],-0.2
18,CC1=NC(=Cc2ccc(O)cc2)C(=O)N(O)C1=O [M 800],-0.2
19,CC(C)CCC1=NC(=Cc2ccc(O)cc2)C(=O)N1 [M 803],-0.1
20,CCN(CC)c1ccc(C=C2N=C(C)N(CCCC(=O)O)C2=O)cc1 [M 820],0.1
21,CC1=NC(=Cc2cc(F)c(O)c(F)c2)C(=O)N1CCCC(=O)O [M 894],-0.3
22,CCN(CC)c1ccc(C=C2N=C(C=Cc3ccncc3)N(C)C2=O)cc1 [M 895],0.8

row,Compound,LTR-III ΔTm [°C]
1,CC1=NC(=Cc2cc(Br)c(O)c(Br)c2)C(=O)N1C [M 906],-2.7
2,COc1ccc(C(=O)Oc2ccccc2)cc1 [M 939],-1.1
3,CCn1nnc2c(Nc3ccccc3)cccc2c1=O [M 958A],-0.7
4,CN(C)C=CC1=NC(=Cc2ccc(O)cc2)C(=O)N1C [M 995a],0.1
5,CN1C(=O)C(=Cc2ccc(O)cc2)N=C1C=Cc1ccccc1 [M 996a],0.1
6,CC(=O)Oc1ccc(C=C2N=C(C=Cc3ccccc3)N(C)C2=O)cc1 [M 1009A],0.5
7,CC(=O)Oc1ccc(C=C2N=C(C=Cc3ccncc3)N(C)C2=O)cc1 [M 1009B],0.5
8,CCN(CC)c1ccc(C=C2N=C(C)NC2=O)cc1 [M 1045],0.1
9,CN(C)c1ccc(C(O)(c2ccc(N(C)C)cc2)c2ccccn2)cc1 [M 1122],-0.6
10,COc1ccc(C(O)(c2ccccc2)c2ccccn2)cc1 (centres unmarked) [M 1136],-0.7
11,CC1=CC(C)(C)N(C)c2ccc(C=C3N=C(C)N(C)C3=O)cc21 [M 1152],0.6
12,CNc1ccc(C=C2N=C(C)N(C)C2=O)cc1N [M 1165],0.9
13,Oc1cccc2nc3ccccc3nc12 [M 1255],-0.6
14,CC1=NC(=Cc2cccc([N+](=O)[O-])c2)C(=O)N1C [M 1257],-0.9
15,CC1=NC(=Cc2cccc(O)c2)C(=O)N1C [M 1300],0.2
16,CCOC(=O)CN1C(=O)C(=Cc2cc3c4c(c2)CCCN4CCC3)N=C1C [M 1343],0
17,CCOC(=O)/C=C/c1ccc(O[Si](c2ccccc2)(c2ccccc2)C(C)(C)C)cc1 [M 1352],-0.5
18,CC(C)(C)[Si](Oc1ccc(/C=C/CO)cc1)(c1ccccc1)c1ccccc1 [M 1359],0.1
19,COc1ccc2cc(C(c3ccc(C)cc3)C(c3ccc(C)cc3)c3ccc4cc(OC)ccc4c3)ccc2c1 (centres unmarked) [M 1362.2],-0.6
20,CC(C)(C)[Si](Oc1ccc(C=CC=O)cc1)(c1ccccc1)c1ccccc1 [M 1373.2],-0.5
21,CC1=NC(=CC=Cc2ccc(O)cc2)C(=O)N1C [M 1378],-0.7
22,CCN1C(=O)C(=CC=Cc2ccc(O)cc2)N=C1C [M 1379.2],-0.2

row,Compound,LTR-III ΔTm [°C]
1,CCC1=NC(=Cc2ccc(O[Si](c3ccccc3)(c3ccccc3)C(C)(C)C)cc2)C(=O)N1O[Si](c1ccccc1)(c1ccccc1)C(C)(C)C [M 1505],-0.3
2,CCCC1=NC(=Cc2ccc(O[Si](c3ccccc3)(c3ccccc3)C(C)(C)C)cc2)C(=O)N1C [M 1550],-0.1
3,CCC1=NC(=Cc2ccc(O[Si](c3ccccc3)(c3ccccc3)C(C)(C)C)cc2)C(=O)N1C [M 1557],-0.1
4,CC1=NC(=Cc2ccco2)C(=O)N1C [M 1583.2],-0.5
5,CC1=NC(=Cc2cccs2)C(=O)N1C [M 1583.3],0.1
6,CC1=NC(=Cc2ccccc2O)C(=O)N1C [M 1583.4],0.2
7,COc1ccccc1C=C1N=C(C)N(C)C1=O [M 1583.5],0.1
8,COc1ccc(/C=C2\N=C(C)N(C)C2=O)cc1OC [M 1583.6],0
9,CC1=NC(=Cc2ccc(O)c(O)c2)C(=O)N1C [M 1583.7],-1.4
10,CC1=N/C(=C\c2ccccc2O[Si](c2ccccc2)(c2ccccc2)C(C)(C)C)C(=O)N1C [M 1586],-0.3
11,CCCCN(CCCC)c1cccc(C=C2N=C(C)N(C)C2=O)c1 [M 1600],-0.4
12,CC1=NC(=Cc2ccc(O[Si](c3ccccc3)(c3ccccc3)C(C)(C)C)c(O)c2)C(=O)N1C [M 1620],0.4
13,CCN(CC)c1ccc(C=C2N=C(C)N(C)C2=O)cc1 [M 1661],0.4
14,Br.CC1=NC(=Cc2ccc(N(C)C)cc2)C(=O)N1CCN [M 1668],0.2
15,CCN(CC)c1ccc(C=C2N=C(C(C)=O)N(C)C2=O)cc1 [M 1706],-0.4
16,COc1ccc(C=C2N=C(C)N(C)C2=O)cc1 [M 1814],-0.3
17,CCOC(=O)CN1C(=O)C(=Cc2ccc(O)cc2)N=C1C [M 1831.1],-0.2
18,CCCC1=NC(=C(N)c2ccccc2)C(=O)N1 [M 1862],-1.1
19,CCCC1=NC(=C(NB(F)F)c2ccccc2)C(=O)N1 [M 1878.1],-1.5
20,CCN(CC)c1ccc(/C=C2\N=C(C)N(C)C2=O)c(O)c1 [M 1933],-0.3
21,COc1ccc(C=C2N=C(Nc3ccccc3)N(C)C2=O)cc1 [M 1944b],-0.3
22,CCCC1=NC(=CN(C)C)C(=O)N1C [M 1945.1],-0.6

row,Compound,LTR-III ΔTm [°C]
1,CCN(CC)c1ccc(C=C2N=C(C=Cc3ccc(OC)cc3)N(C)C2=O)c(B(F)F)c1 [M 1971a],-0.3
2,CCN(CC)c1ccc(C=C2N=C(C=CC=Cc3ccc(OC)cc3)N(C)C2=O)c(B(F)F)c1 [M 1971c],0.6
3,CC1=NC(=Cc2c[nH]c3cccc(C)c23)C(=O)N1C [M 1974],0
4,CC(=O)C1=N/C(=C\c2c[nH]c3ccccc23)C(=O)N1C [M 1975],-0.6
5,CCC(=O)n1cc(C=C2N=C(CC)OC2=O)c2c(C)cccc21 [M 1977],0
6,CCC1=NC(=Cc2c[nH]c3cccc(C)c23)C(=O)N1C [M 1978],-0.1
7,CCC(=O)NC(=Cc1c[nH]c2cccc(C)c12)C(=O)NC [M 1979],-0.1
8,CC(=O)C1=NC(=Cc2c[nH]c3cccc(C)c23)C(=O)N1C [M 1981],1.7
9,CC1=NC(=Cc2ccncc2)C(=O)N1C [M 1998],-0.4
10,CC1=NC(=Cc2ccc(N(C)C)cc2)C(=O)N1CCNC(=O)OC(C)(C)C [M 2022a],-0.2
11,COc1ccc(C=C2N=C(C)N(CCNC(=O)OC(C)(C)C)C2=O)cc1 [M 2022b],0
12,CC1=NC(=Cc2ccccc2)C(=O)N1CCNC(=O)OC(C)(C)C [M 2022d],-0.3
13,COc1ccc(C=C2N=C(C)N(CCNC(=O)OC(C)(C)C)C2=O)cc1OC [M 2022e],0
14,CCN(CC)c1ccc(C=C2N=C(C)N(CCNC(=O)OC(C)(C)C)C2=O)cc1 [M 2026c],0.2
15,COc1cccc(C=C2N=C(C)N(CCNC(=O)OC(C)(C)C)C2=O)c1 [M 2026f],-0.4
16,COc1ccc(C=C2C(=O)N(C)C(C)=[N+]2C)cc1.O=S(=O)([O-])C(F)(F)F [M 2060],-0.2
17,CCN(CC)C(=S)Oc1ccc(C=C2N=C(c3ccccc3)N(C)C2=O)cc1 [M 2069],-0.4
18,CCN(CC)C(=O)Sc1ccc(C=C2N=C(c3ccccc3)N(C)C2=O)cc1 [M 2075],0.3
19,CCN(CC)C(=S)Oc1ccc(C=C2N=C(C)N(C)C2=O)cc1 [M 2081],0.1
20,CCCC1=N/C(=C\c2ccncc2)C(=O)N1C [M 2237],-0.3
